Measured values as given in patent US20240270821A1, “GIP/GLP1/GCG TRI-RECEPTOR AGONISTS AND USES THEREOF” (priority 2023, published 2024).
Like-named read-outs stand apart in the source and are kept apart here. Starred links: 1 amine or outer side, 2 acyl side, 3 side chain; linkers in the order of their positions; H or OH if unused. Non-standard residues stand in square brackets, D forms with d. Residues, ends and D or L forms follow the SMILES beside them. Groups on a side chain read outwards from the residue. No end group written: not given here. *: point of attachment. C20 diacid = O=C(O)CCCCCCCCCCCCCCCCCCC(=O)*; C18 diacid = O=C(O)CCCCCCCCCCCCCCCCC(=O)*; αMePhe(2-F) = C[C@](N)(Cc1ccccc1F)C(=O)O; γGlu = O=C(O)[C@H](CCC(=O)[*:2])N[*:1]; αMe4Pal = C[C@](N)(Cc1ccncc1)C(=O)O; αMeY = C[C@](N)(Cc1ccc(O)cc1)C(=O)O; 4Pal = N[C@@H](Cc1ccncc1)C(=O)O; αMeL = CC(C)C[C@](C)(N)C(=O)O; αMeS = C[C@](N)(CO)C(=O)O; Orn = NCCC[C@H](N)C(=O)O; AEEA = NCCOCCOCC(=O)O; Aib = CC(C)(N)C(=O)O

Assays:
Format in all cases: cell-based
[1] = target: T1, hGIPR (Homo sapiens, UniProt P48546); assay: Functional cAMP activity in the presence of 1% HSA; settings: read-out: cAMP Rel EC50, hGIPR
T1 sequence (P48546 22-466): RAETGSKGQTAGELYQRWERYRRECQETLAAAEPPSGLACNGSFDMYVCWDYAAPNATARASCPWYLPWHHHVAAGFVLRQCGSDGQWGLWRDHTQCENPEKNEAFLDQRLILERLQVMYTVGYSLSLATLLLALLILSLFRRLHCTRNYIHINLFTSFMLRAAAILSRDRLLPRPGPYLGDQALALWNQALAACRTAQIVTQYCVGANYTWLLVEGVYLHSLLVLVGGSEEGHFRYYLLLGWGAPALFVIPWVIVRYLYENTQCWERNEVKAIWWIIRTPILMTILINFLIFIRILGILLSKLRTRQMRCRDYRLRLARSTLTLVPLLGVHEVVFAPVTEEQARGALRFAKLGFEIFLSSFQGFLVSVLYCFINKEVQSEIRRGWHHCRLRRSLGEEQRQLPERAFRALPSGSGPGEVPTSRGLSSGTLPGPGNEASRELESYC

[2] = target: T2, hGLP-1R (Homo sapiens, UniProt P43220); assay: Functional cAMP activity in the presence of 1% HSA; settings: read-out: cAMP Rel EC50, hGLP-1R
[3] = target: human GcgR (Homo sapiens, UniProt P47871); assay: Functional cAMP activity in the presence of 1% HSA; settings: read-out: cAMP Rel EC50, hGcgR
[4] = target: T1, hGIPR; assay: Functional cAMP activation in the presence of 0.1% casein (no HSA); settings: read-out: Relative cAMP EC50, hGIPR;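 for Relative cAMP EC50, hGIPR: intracellular cAMP rise after 30 min at 37 °C read by HTRF against a standard curve, scaled between buffer alone (0%) and top control ligand concentration (100%), four-parameter fit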;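 for Relative cAMP EC50, hGLP-1R: intracellular cAMP rise after 30 min at 37 °C read by HTRF, normalized between buffer only (0%) and maximal control ligand (100%), four-parameter variable-slope fit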;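 for Relative cAMP EC50, hGcgR: intracellular cAMP rise after 30 min at 37 °C, read by HTRF against a cAMP standard curve, scaled from buffer only (0%) to maximal control ligand response (100%)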
[5] = target: T2, hGLP-1R; assay: as above; settings: read-out: Relative cAMP EC50, hGLP-1R
[6] = target: hGcgR (Homo sapiens, UniProt P47871); assay: as above; settings: read-out: Relative cAMP EC50, hGcgR;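 note: intracellular cAMP rise after 30 min at 37 °C, read by HTRF against a cAMP standard curve, scaled from buffer only (0%) to maximal control ligand response (100%)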
[7] = in the presence of 0.1% casein (no HSA), geometric mean
[8] = HEK-293 clonal cell line, in the presence of 1% HSA, geometric mean of relative EC50

Chain of human GcgR (P47871 26-477): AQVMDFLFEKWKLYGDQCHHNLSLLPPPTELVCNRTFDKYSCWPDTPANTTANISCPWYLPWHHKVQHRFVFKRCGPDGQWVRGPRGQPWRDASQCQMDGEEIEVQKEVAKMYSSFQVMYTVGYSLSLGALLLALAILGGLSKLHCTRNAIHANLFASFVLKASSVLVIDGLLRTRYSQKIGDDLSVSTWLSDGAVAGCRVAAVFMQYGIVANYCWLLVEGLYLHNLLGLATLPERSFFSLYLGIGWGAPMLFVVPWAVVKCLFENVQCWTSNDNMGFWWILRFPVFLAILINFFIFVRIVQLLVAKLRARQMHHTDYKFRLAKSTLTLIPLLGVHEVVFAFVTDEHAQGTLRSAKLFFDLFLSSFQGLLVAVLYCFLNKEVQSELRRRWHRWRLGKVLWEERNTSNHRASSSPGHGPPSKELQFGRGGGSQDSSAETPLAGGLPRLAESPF
Chain of hGcgR (P47871 26-477): as above
T2 sequence (P43220 24-463): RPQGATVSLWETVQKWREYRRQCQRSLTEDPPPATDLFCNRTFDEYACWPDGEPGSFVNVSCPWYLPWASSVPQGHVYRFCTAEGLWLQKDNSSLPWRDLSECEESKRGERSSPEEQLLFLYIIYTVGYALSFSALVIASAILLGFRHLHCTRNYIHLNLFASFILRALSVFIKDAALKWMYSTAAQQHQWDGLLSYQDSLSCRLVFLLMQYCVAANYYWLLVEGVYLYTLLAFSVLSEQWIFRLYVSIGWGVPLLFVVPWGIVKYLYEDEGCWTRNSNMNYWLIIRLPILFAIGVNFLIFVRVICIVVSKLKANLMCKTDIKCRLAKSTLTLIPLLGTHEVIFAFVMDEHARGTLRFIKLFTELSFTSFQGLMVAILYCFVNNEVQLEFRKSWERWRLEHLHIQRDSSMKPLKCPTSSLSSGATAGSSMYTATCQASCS

Compound | EC50 [1] [nM] | EC50 [2] [nM] | EC50 [3] [nM] | EC50 [4] [nM] | EC50 [5] [nM] | EC50 [6] [nM] | EC50 [4, 7] [nM] | EC50 [5, 7] [nM] | EC50 [6, 7] [nM] | EC50 [1, 8] [nM] | EC50 [2, 8] [nM] | EC50 [3, 8] [nM]
CC[C@H](C)[C@H](NC(=O)[C@H](CCCN)NC(=O)[C@H](CC(=O)O)NC(=O)[C@H](CC(C)C)NC(=O)[C@](C)(CC(C)C)NC(=O)[C@@H](NC(=O)[C@](C)(CO)NC(=O)[C@H](Cc1ccncc1)NC(=O)[C@H](CC(=O)O)NC(=O)[C@H](CO)NC(=O)[C@@H](NC(=O)[C@](C)(Cc1ccccc1F)NC(=O)[C@@H](NC(=O)CNC(=O)[C@H](CCC(N)=O)NC(=O)C(C)(C)NC(=O)[C@@H](N)Cc1ccc(O)cc1)[C@@H](C)O)[C@@H](C)O)[C@@H](C)CC)C(=O)N[C@@H](C)C(=O)N[C@@H](CCC(N)=O)C(=O)NC(C)(C)C(=O)N[C@@H](CCCN)C(=O)N[C@@H](Cc1ccccc1)C(=O)N[C@H](C(=O)N[C@H](CCC(=O)O)C(=O)N[C@@](C)(Cc1ccc(O)cc1)C(=O)N[C@@H](CC(C)C)C(=O)N[C@H](C(=O)N[C@@H](CCCCNC(=O)COCCOCCNC(=O)CC[C@H](NC(=O)CCCCCCCCCCCCCCCCC(=O)O)C(=O)O)C(=O)NCC(=O)NCC(=O)N1CCC[C@H]1C(=O)N[C@@H](CO)C(=O)N[C@@H](CO)C(=O)NCC(=O)N[C@@H](CCC(=O)O)C(=O)N1CCC[C@H]1C(=O)N1CCC[C@H]1C(=O)N1CCC[C@H]1C(=O)N[C@@H](CCC(=O)O)C(N)=O)[C@@H](C)CC)[C@@H](C)CC [Example 444] (H-Y[Aib]QGT[αMePhe(2-F)]TSD[4Pal][αMeS]I[αMeL]LD[Orn]IAQ[Aib][Orn]FI[dE][αMeY]LIK([AEEA-γGlu-C18 diacid])GGPSSGEPPPE-NH2) | 1.74 | 54.6 | 1280 | 0.0106 | 0.352 | 6.49 |  |  |  |  |  | 
CC[C@H](C)[C@H](NC(=O)[C@H](CC(C)C)NC(=O)[C@H](Cc1ccc(O)cc1)NC(=O)[C@H](CCC(=O)O)NC(=O)[C@@H](NC(=O)[C@H](Cc1ccccc1)NC(=O)[C@H](C)NC(=O)[C@](C)(Cc1ccncc1)NC(=O)[C@H](CCC(N)=O)NC(=O)[C@H](C)NC(=O)[C@H](CCCCNC(=O)CC[C@H](NC(=O)CC[C@H](NC(=O)CCCCCCCCCCCCCCCCC(=O)O)C(=O)O)C(=O)O)NC(=O)[C@H](CCCCN)NC(=O)[C@H](CC(=O)O)NC(=O)[C@H](CC(C)C)NC(=O)[C@](C)(CC(C)C)NC(=O)[C@H](CCC(N)=O)NC(=O)[C@H](CO)NC(=O)[C@H](Cc1ccncc1)NC(=O)[C@H](CC(=O)O)NC(=O)[C@H](CO)NC(=O)[C@@H](NC(=O)[C@H](Cc1ccccc1)NC(=O)[C@@H](NC(=O)CNC(=O)[C@H](CCC(N)=O)NC(=O)C(C)(C)NC(=O)[C@@H](N)Cc1ccc(O)cc1)[C@@H](C)O)[C@@H](C)O)[C@@H](C)CC)C(=O)N[C@@H](C)C(=O)NCC(=O)NCC(=O)N1CCC[C@H]1C(=O)N[C@@H](CO)C(=O)N[C@@H](CO)C(=O)NCC(=O)N[C@@H](C)C(=O)N1CCC[C@H]1C(=O)N1CCC[C@H]1C(=O)N1CCC[C@H]1C(=O)N[C@@H](CO)C(=O)NCC(=O)N[C@@H](CO)C(N)=O [Example 870] | 7.29 | 71.2 | 736 |  |  |  | 0.0698 | 0.962 | 4.4 |  |  | 
H-Y[Aib]QGTFTSD[4Pal]SR[αMeL]LDKK([γGlu-γGlu-C18 diacid])AQ[αMe4Pal]AFIE[αMe4Pal]LIEGGPSSGAPPPSGS-NH2 [Example 953] | 10.9 | 347 | 275 |  |  |  | 0.111 | 2.63 | 2.75 |  |  | 
H-Y[Aib]QGTFTSD[4Pal]SQ[αMeL]LD[Orn]K([dE-γGlu-C18 diacid])AQ[αMe4Pal]AFIE[αMeY]LIAGGPSSGAPPPSGSEE-NH2 [Example 1074] | 8.49 | 101 | 1990 |  |  |  | 0.0745 | 0.794 | 22.8 |  |  | 
H-Y[Aib]QGTFTSD[4Pal]S[Orn][αMeL]LDKK([γGlu-γGlu-C18 diacid])AQ[αMe4Pal]AFIEYLIAGGPSSGEPPPSGTEEE-NH2 [Example 982] | 19.4 | 310 | 307 |  |  |  | 0.328 | 4.94 | 3.91 |  |  | 
H-Y[Aib]QGTFTSDFS[Orn][αMeL]LDKK([AEEA-γGlu-C18 diacid])AQ[αMe4Pal]EFIEYLIE[Aib]GPSSGAPPPSGS-NH2 [Example 879] | 20.1 | 591 | 329 |  |  |  | 0.169 | 4 | 2.16 |  |  | 
H-Y[Aib]QGT[αMePhe(2-F)]TSDYSILLDKK([AEEA-γGlu-C18 diacid])AQ[Aib]AFIEFLEEGGPSSGAPPPSEG-NH2 [Example 412] | 12.5 | 46 | 467 | 0.0351 | 0.282 | 2.36 |  |  |  |  |  | 
Y[Aib]QGT[αMePhe(2-F)]TSD[4Pal][αMeS]I[αMeL]LD[Orn]K([γGlu-γGlu-C18 diacid])AQ[Aib][Orn]FI[dE]YLIEGGPSSGEPPPSGTE-NH2 [Example 521] | 0.967 | 24.8 | 275 | 0.0164 | 0.341 | 4.04 |  |  |  |  |  | 
H-Y[Aib]QGT[αMePhe(2-F)]TSD[4Pal][αMeS]I[αMeL]LD[Orn]K([AEEA-γGlu-C18 diacid])AQ[αMe4Pal]EFI[dE][αMeY]LIEGGPSSGEPPPEGE-NH2 [Example 1149] | 0.96 | 52.2 | 184 |  |  |  | 0.00804 | 0.352 | 1.37 |  |  | 
H-Y[Aib]QGTFTSD[4Pal]S[Orn][αMeL]LDKK([γGlu-γGlu-C18 diacid])AQ[αMe4Pal]AFIE[αMe4Pal]LIEGGPSSGAPPPSGSEE-NH2 [Example 958] | 27.1 | 850 | 340 |  |  |  | 0.343 | 9.51 | 3.17 |  |  | 
Y[Aib]QGTFTSDFSK[αMeL]LDKK([AEEA-γGlu-C20 diacid])AQ[Aib]AFIQYLLAGGPSSGEPPPSEG-NH2 [Example 27] | 72.3 | 464 | 1180 |  |  |  | 0.41 | 2.33 | 8.91 |  |  | 
Y[Aib]QGT[αMePhe(2-F)]TSD[4Pal][αMeS]I[αMeL]LD[Orn]K([γGlu-γGlu-C18 diacid])AQ[Aib][Orn]FI[dE][αMeY]LSEGGPSSGEPPPSGSEE-NH2 [Example 569] | 12.4 | 84.4 | 697 | 0.199 | 1.12 | 4.34 |  |  |  |  |  | 
H-Y[Aib]QGTFTSDFS[Orn][αMeL]LD[Orn]K([γGlu-γGlu-C18 diacid])AQ[Aib]AFIE[αMeY]LLEGGPSSGAPPPGGSEE-NH2 [Example 1049] |  |  |  |  |  |  | 0.24 | 2.23 | 6.33 | 56.2 | 780 | 1280
H-Y[Aib]QGT[αMePhe(2-F)]TSD[4Pal][αMeS]I[αMeL]LD[Orn]K([AEEA-γGlu-γGlu-C18 diacid])AQ[Aib][Orn]FIEYLIEAGPSSGEPPPEEG-NH2 [Example 485] | 0.869 | 11.8 | 298 | 0.0194 | 0.277 | 4.29 |  |  |  |  |  | 
H-Y[Aib]QGTFTSD[4Pal]SQ[αMeL]LDKK([γGlu-γGlu-C18 diacid])AQ[αMe4Pal]AFIEYLIE[Aib]GPSSGAPPPSGSGE-NH2 [Example 891] | 16 | 330 | 581 |  |  |  | 0.155 | 3.25 | 3.14 |  |  | 
H-Y[Aib]QGTFTSD[4Pal]S[Orn][αMeL]LDKK([γGlu-γGlu-C18 diacid])AQ[αMe4Pal]AFIEYLIE[Aib]GPSSGAPPPSGS-NH2 [Example 865] | 10.8 | 351 | 248 |  |  |  | 0.0797 | 3.02 | 1.48 |  |  | 
H-Y[Aib]QGTFTSD[4Pal]S[Orn][αMeL]LDKK([γGlu-γGlu-C18 diacid])AQ[αMe4Pal]AFIE[αMeY]LIAGGPSSGAPPPEGS-NH2 [Example 1015] | 9.08 | 92.4 | 357 |  |  |  | 0.0822 | 1.01 | 3.53 |  |  | 
Y[Aib]QGT[αMePhe(2-F)]TSD[4Pal]SILLDKK([γGlu-γGlu-C18 diacid])AQ[Aib]AFIEWLQEGGPSSGAPPPSGTEE-NH2 [Example 578] | 3.73 | 54.7 | 781 | 0.0208 | 0.233 | 6.26 |  |  |  |  |  | 
